Target: VEGFR2 (Homo sapiens, UniProt P35968)
Assay: VEGFR2 autophosphorylation immunoblot in HEK293 cells stimulated with VEGF
Format: cell-based
Set-up: expressed in transfected cells; host or cells: HEK293
Experimental: FIG. 4: Photograph of blot showing inhibition of VEGFR2 phosphorylation ectopically expressed in HEK293 cells by indicated doses of Pz-1 or vehicle (NT: not treated). HEK293 cells were transiently transfected with vector expressing VEGFR2. 36 hr following transfection, cells were serum-starved for 12 hr, treated for 2 hr with indicated concentrations of Pz-1 and finally treated with VEGF-A (100 ng/ml) for 15 min. 50 μg of total cell lysates were subjected to immunoblotting with anti-phospho-Y1175 (αpVEGFR2) VEGFR2 antibodies. The blot was normalized using anti-VEGFR2 (αVEGFR2) antibody.
The inhibition of RET auto-phosphorylation by Pz-1 was measured in several different cell lines including NIH3T3 fibroblasts expressing RET/C634Y or RET/M918T, TT expressing RET/C634W (MTC), Nthy-ory-3-1 (thyroid, non-transformed with RET; negative control), HEK293/RET/PTC1 (CCDC6-RET that can be found in PTC & lung cancer), HEK293/RET-KIF5B (that can be found in lung cancer), HEK293/RET/PTC3 (NCOA4-RET, that can be found in PTC & lung cancer), and HEK293 transfected with RET/C634R-V804M (FIGS. 1-3). HEK293 cells were transiently transfected with expression vectors comprising the desired mutant. […]
Protein lysates were prepared according to standard procedures. […] Immune complexes were detected with the enhanced chemiluminescence kit (Amersham Pharmacia Biotech, Little Chalfort, UK). […]

Sequence of VEGFR2 (P35968 20-1356): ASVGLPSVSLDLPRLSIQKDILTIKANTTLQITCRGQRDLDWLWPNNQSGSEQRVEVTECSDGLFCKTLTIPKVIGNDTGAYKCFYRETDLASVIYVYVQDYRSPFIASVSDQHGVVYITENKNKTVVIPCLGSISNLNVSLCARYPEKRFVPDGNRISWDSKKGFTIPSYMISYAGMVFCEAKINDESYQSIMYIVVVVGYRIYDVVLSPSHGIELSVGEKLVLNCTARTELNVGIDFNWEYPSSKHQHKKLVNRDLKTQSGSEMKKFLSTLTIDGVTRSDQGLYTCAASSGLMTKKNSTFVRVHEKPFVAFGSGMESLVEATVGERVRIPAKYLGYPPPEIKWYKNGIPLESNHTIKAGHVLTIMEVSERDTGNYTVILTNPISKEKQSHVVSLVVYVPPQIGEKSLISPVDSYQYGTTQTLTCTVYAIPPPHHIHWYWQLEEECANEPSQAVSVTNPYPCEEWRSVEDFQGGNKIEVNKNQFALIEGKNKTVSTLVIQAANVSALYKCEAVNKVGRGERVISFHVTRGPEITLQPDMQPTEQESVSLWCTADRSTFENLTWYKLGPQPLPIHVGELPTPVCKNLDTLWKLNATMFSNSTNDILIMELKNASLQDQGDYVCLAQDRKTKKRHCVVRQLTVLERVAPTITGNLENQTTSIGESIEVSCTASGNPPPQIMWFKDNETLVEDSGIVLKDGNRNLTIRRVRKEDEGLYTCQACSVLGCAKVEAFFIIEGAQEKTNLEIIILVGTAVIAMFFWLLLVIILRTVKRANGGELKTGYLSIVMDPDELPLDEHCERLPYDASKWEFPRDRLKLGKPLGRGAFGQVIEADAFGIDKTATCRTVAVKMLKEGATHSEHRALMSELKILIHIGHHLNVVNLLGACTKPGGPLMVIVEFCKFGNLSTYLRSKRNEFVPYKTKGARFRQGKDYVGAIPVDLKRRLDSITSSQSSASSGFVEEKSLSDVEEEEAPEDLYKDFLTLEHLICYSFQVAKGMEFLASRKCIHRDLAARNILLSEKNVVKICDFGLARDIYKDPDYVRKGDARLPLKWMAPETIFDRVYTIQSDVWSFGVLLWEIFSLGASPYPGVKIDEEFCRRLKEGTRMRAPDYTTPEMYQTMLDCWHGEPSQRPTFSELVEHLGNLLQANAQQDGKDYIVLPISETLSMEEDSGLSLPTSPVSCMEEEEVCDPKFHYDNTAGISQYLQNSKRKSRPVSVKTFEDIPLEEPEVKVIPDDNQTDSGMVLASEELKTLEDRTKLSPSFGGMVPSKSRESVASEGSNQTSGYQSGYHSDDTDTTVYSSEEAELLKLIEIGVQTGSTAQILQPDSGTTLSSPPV

## Cn1cc(-c2ccc3c(c2)ncn3-c2ccc(CC(=O)Nc3cc(C(C)(C)C)on3)cc2)cn1 [Pz-1, N-(5-(tert-butyl)isoxazol-3-yl)-2-(4-(5-(1-methyl-1H-pyrazol-4-yl)-1H-benzo[d]imidazol-1-yl)phenyl)acetamide]
1 nM, HEK 293 transiently transfected with VEGFR2, stimulated with VEGF
  inhibition of VEGFR2 autophosphorylation: strongly inhibited
Nanomolar concentrations
  inhibition of VEGFR2 auto-phosphorylation: 90%

Source: patent US9988371B2, “Benzimidazole analogues and related methods” (The Arizona Board of Regents, on Behalf of the University …, priority 2014, dated 2018)
